# Patent US4510136A (priority 1983, dated 1985)
# Columns and labels:
# Assay type in all cases: in vivo
# [1] = test system: Puccinia recondita var. tritici; test: Wheat leaf rust control on sprayed wheat seedlings (Example 79); details: Puccinia recondita, 168 h; 100 ppm spray, day before inoculation
# Procedure, shortened: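 Disease was scored as leaf rust pustules 7 days after a 24 h, 20° saturated-humidity incubation of seedlings inoculated with P. recondita var. tritici spores. Inoculation followed by one day a run-off spray of 100 ppm compound in water containing 6% acetone and 250 ppm TREM 014.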
# Erysiphe cichoracearum = test: Cucumber powdery mildew control on sprayed cucumber seedlings (Example 80); details: Golovinomyces cichoracearum, 168 h, 100 ppm spray, day before inoculation
# Venturia inaequalis = test: Apple scab control on sprayed apple seedlings (Example 82); details: Venturia inaequalis, 100 ppm spray, day before inoculation
# Helminthosporium maydis = test: Southern corn leaf blight control on sprayed corn seedlings (Example 83); details: Bipolaris maydis, 192 h, 100 ppm spray, day before inoculation
# Procedure, shortened: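 Corn seedlings were sprayed to run-off with 100 ppm suspensions (6% acetone, 250 ppm TREM 014) and spore-inoculated the following day. Disease and growth reduction were rated after 24 h saturated humidity at 20° plus 7 days in a growth room.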
# Cercospora arachidicola = test: Peanut early leafspot control on sprayed peanut seedlings (Example 84); details: Mycosphaerella arachidis, 360 h, 100 ppm spray, day before inoculation; read-out: % Control Peanut Easly Leafspot
# Pyricularia oryzae = test: whole plant or invertebrate; details: Pyricularia oryzae, 168 h, read-out: % Control of Rice Blast, 100 ppm spray, day before inoculation
# Phytophthora infestans = test: whole plant or invertebrate; details: Phytophthora infestans, in Solanum lycopersicum, 168 h, read-out: % Control of Tomato Late Blight, 100 ppm spray, day before inoculation
# Pythium aphanadermatum [2] = test: Pythium control on cotton, seed coating (Example 91); details: 168 h, 0.5 gm/kg seed
# Procedure, shortened: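 Cotton seeds coated with formulated compound at 2 gm/kg seed, air dried, and planted in soil amended with Pythium aphanadermatum, sand and corn meal. Held 1 week at room temperature before disease rating.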
# Pythium aphanadermatum [3] = test: Pythium control on corn, seed coating (Example 92); details: 504 h, 2 gm/kg seed
# Procedure, shortened: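 Formulated compounds were coated onto corn seeds at 2 gm/kg seed, air-dried and sown in soil infested with Pythium aphanadermatum at a rate lethal to most untreated seeds. Seeds were held 2 weeks at 49° F, then 1 week at 70° F, before disease rating.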
# corn seedlings = test: Phytotoxicity on corn seedlings (Example 83); set-up: key: G = growth reduction; H = hormonal effects; details: 100 ppm spray
# Procedure: The compounds of the previous examples were again dissolved in acetone in an amount equal to 6% of the final volume and then suspended at a concentration of 100 ppm in purified water containing 250 ppm of the surfactant TREM 014 (polyhydric alcohol esters). These suspensions were sprayed to the point of run-off on corn seedlings. The following day, the plants were inoculated with a spore suspension of Helminthosporium maydis, causal agent of southern corn leaf blight, and incubated in a saturated humidity chamber at 20° for 24 hours and then in a growth room for an additional 7 days, when disease ratings were made. Treated plants from successful treatments had few or no lesions while the untreated plants had numerous lesions on each leaf. Phytotoxicity expressed as growth reduction was observed on some of the plants in association with disease control.
compound,measurement,setting,value
"C[Si](C)(Cn1cncn1)c1ccc(Cl)cc1 [(4-Chlorophenyl)dimethyl(1H-1,2,4-triazol-1-ylmethyl)silane]",pest or weed control at 100 ppm,[1],100%
same,pest or weed control at 100 ppm,Erysiphe cichoracearum,100%
same,pest or weed control at 100 ppm,Venturia inaequalis,100%
same,pest or weed control at 100 ppm,Helminthosporium maydis,0%
same,pest or weed control at 100 ppm,Cercospora arachidicola,90%
same,pest or weed control at 100 ppm,Pyricularia oryzae,0%
same,pest or weed control at 100 ppm,Phytophthora infestans,0%
same,pest or weed control at 0.5 g/kg seed,Pythium aphanadermatum [2],53%
same,pest or weed control at 2 g/kg seed,Pythium aphanadermatum [3],8%
same,Phytotoxicity on corn,corn seedlings,G
